Experimental data as given in patent US20090105245A1, “METHODS FOR TREATING MACULAR EDEMA AND OCULAR ANGIOGENESIS USING AN ANTI-INFLAMMATORY AGENT AND A RECEPTOR TYROSINE KINASE INHIBITOR” (priority 2006, published 2009).

Key:
[1] = system: diabetes-induced retinal vascular permeability; test: STZ diabetic rat retinal vascular permeability (Evan's blue albumin permeation), oral gavage; type: in vivo
Procedure: METHODS: Diabetes was induced in male Long-Evans rats with 65 mg/kg streptozotocin (STZ) after an overnight fast. Upon confirmation of diabetes (blood glucose >250 mg/dl), treatment was initiated by oral gavage. Non-diabetic (NDM) and diabetic (DM) rats received oral gavage of either vehicle or RTK inhibitor at 1.5 or 5 mg/kg/d BID. After 2 weeks, jugular vein catheters were implanted 1 day prior to experimentation for the infusion of indicator dye. Retinal vascular permeability, RVP, was measured using Evan's blue albumin permeation (45 mg/kg) after a 2 hour circulation period.

[2] = system: existing laser-induced choroidal neovascularization (CNV) in the mouse; test: Mouse laser-induced CNV, regression of existing CNV, intravitreal injection at 7 days post-laser; type: in vivo; details: single intravitreal injection, mouse (FIG. 4)
Procedure: Methods. CNV was generated by laser-induced rupture of Bruch's membrane. Briefly, 4 to 5 week old male C57BL/6J mice were anesthetized using intraperitoneal administration of ketamine hydrochloride (100 mg/kg) and xylazine (5 mg/kg) and the pupils of both eyes dilated with topical ocular instillation of 1% tropicamide and 2.5% Mydfin®. One drop of topical cellulose (Gonioscopic®) was used to lubricate the cornea. A hand-held cover slip was applied to the cornea and used as a contact lens to aid visualization of the fundus. Three to four retinal burns were placed in randomly assigned eye (right or left eye for each mouse) using the Alcon 532 nm EyeLite laser with a slit lamp delivery system. The laser burns were used to generate a rupture in Bruch's membrane, which was indicated opthalmoscopically by the formation of a bubble under the retina. Only mice with laser burns that produced three bubbles per eye were included in the study. Burns were typically placed at the 3, 6, 9 or 12 o'clock positions in the posterior pole of the retina, avoiding the branch retinal arteries and veins. […]
METHODS: CNV was generated by laser-induced rupture of Bruch's membrane as described above in Example 3. […] Choroidal flat mounts were analyzed as described above in Example 3.

## Cc1ccc(F)c(NC(=O)Nc2ccc(-c3cccc4[nH]nc(N)c34)cc2)c1 [Compound 86, N-[4-[3-amino-1H-indazol-4-yl]phenyl]-N′-(2-fluoro-5-methylphenyl)urea]
[1]; DM control vs DM treatment groups
  blood glucose levels and body weights: not different between DM control and DM treatment groups
[1]; oral RTKi, NDM and DM groups
  tolerability, systemic or ERG side effects: well tolerated by both NDM and DM groups with no observed systemic or ERG side effects
[2]
  regression of existing laser-induced CNV: induces regression of existing laser-induced choroidal neovascularization (CNV)
